Assays:
[1] = test system: K-562; test: MTT cell viability assay, K-562; format: cell-based, human; conditions: 72 h, ± standard deviation
Description: (§1) Cell viability was determined using the MTT colorimetric assay. […] Statistical significance was determined at p ≤ 0.05.

[2] = test system: LAMA-84; test: MTT cell viability assay, LAMA-84; format: cell-based, human; conditions: 72 h, ± standard deviation
Description: as §1

[3] = test system: BV-173; test: MTT cell viability assay, BV-173; format: cell-based, human; conditions: 72 h, ± standard deviation
Description: as §1

[4] = test system: CCL-1; test: MTT cell viability assay, normal fibroblasts CCL-1; format: cell-based, murine; conditions: 72 h, non-malignant fibroblasts, ± standard deviation
Description: as §1

[5] = test system: AR-230; test: MTT cell viability assay, AR-230; format: cell-based, human; conditions: 72 h, ± standard deviation
Description: as §1

[6] = test system: MDA-MB-231; design: method as in doi:10.2533/chimia.2007.716; conditions: hormone-independent breast cancer cells; cited from earlier work
[7] = MTT cell viability assay, normal fibroblasts CCL-1; format: cell-based, murine; conditions: mouse, CCL-1 normal fibroblast cells, non-malignant fibroblasts, ± standard deviation
Description: as §1

Structure (SMILES) | IC50 [1] [µM] | IC50 [2] [µM] | IC50 [3] [µM] | IC50 [4] [µM] | IC50 [5] [µM] | IC50 [6] [µM] | IC50 at 72 h [7] [µM]
Cc1ccc(NC(=O)c2ccc(CN3CCN(C)CC3)cc2)cc1Nc1nccc(-[c-]2cccc2)n1.[Fe+2].c1cc[cH-]c1 [Compound 6, N-(4-Methyl-3-((4-ferrocenylpyrimidin-2-yl)amino)phenyl)-4-((4-methylpiperazin-1-yl)methyl)benzamide] | 29.9 ± 3.1 | 25.4 ± 2.9 | 33.6 ± 2.1 | 55.7 ± 9.5 | 5.9 ± 0.2 |  | 
Cc1cn(-c2cc(NC(=O)c3ccc(C)c(Nc4nccc(-[c-]5cccc5)n4)c3)cc(C(F)(F)F)c2)cn1.[Fe+2].c1cc[cH-]c1 [Compound 9, 4-Methyl-N-(3-(4-methyl-1H-imidazol-1-yl)-5-(trifluoromethyl)phenyl)-3-((4-ferrocenylpyrimidin-2-yl)amino)benzamide] | 25.9 ± 2.9 | 25.4 ± 2.4 | 33.6 ± 2.3 | > 200 | 144 ± 10.6 |  | 
Cc1ccc(NC(=O)[c-]2cccc2)cc1Nc1nccc(-c2cccnc2)n1.[Fe+2].c1cc[cH-]c1 [Compound 14, N-(4-Methyl-3-((4-(pyridin-3-yl)pyrimidin-2-yl)amino)phenyl)ferrocenecarboxamide] | > 200 | 27.3 ± 1.8 | 17.9 ± 3.1 | > 200 | 5.1 ± 1.3 |  | 
Cc1ccc(C(=O)N[c-]2cccc2)cc1Nc1nccc(-c2cccnc2)n1.[Fe+2].c1cc[cH-]c1 [Compound 18, N-Ferrocenyl-4-methyl-3-((4-(pyridin-3-yl)pyrimidin-2-yl)amino)benzamide] | > 200 | 26.8 ± 3.2 | 15.1 ± 2.9 | 60.2 ± 8.3 | 5.1 ± 0.9 |  | 
CCC(=C(c1ccc(O)cc1)c1ccc(OCCCN(C)C)cc1)[c-]1cccc1.[Fe+2].c1cc[cH-]c1 [Hydroxy-ferrocifen] |  |  |  |  |  | 0.5 | 
CC/C(=C(\c1ccc(O)cc1)c1ccc(OCCN(C)C)cc1)c1ccccc1 [Hydroxy-tamoxifen] |  |  |  |  |  | 30 | 
Cc1ccc(NC(=O)c2ccc(CN3CCN(C)CC3)cc2)cc1Nc1nccc(-c2cccnc2)n1 [imatinib, reference compound] |  |  |  |  |  |  | > 200

Reference: article PMC12348835, “Design, Docking Analysis, and Structure–Activity Relationship of Ferrocene-Modified Tyrosine Kinase Inhibitors: Insights into BCR-ABL Interactions” (Molecules, 2025)
